Reference: patent publication US7763652B2, “Prostaglandin derivatives” (Taisho Pharmaceutical Co., Ltd., priority 2002, dated 2010)

Tested on: male cynomolgus monkeys
Test: Sleep-inducing test by cisternal administration
Format: in vivo
Conditions: cisternal infusion; for Sleep time: sleep time over three hours after administration, four male cynomolgus monkeys; for Number of slept animals: three hours after administration
Description: Sleep-Inducing Test by Cisternal Administration
Four male cynomolgus monkeys weighing 2.0-3.5 kg were individually placed in cages. The behaviors of the respective animals were recorded by videotape from one hour before drug administration to three hours after drug administration. Compound 16 was dissolved in physiological saline solution and sterilized using a Minipore filter. The drug was cisternally infused into the monkeys anesthetized with isoflurane inhalation. The dose was 10 μg/0.1 ml per monkey and 100 μg/0.1 ml per monkey. The same dose of the vehicle was infused cisternally to the control group. The test schedule was carried out according to the following protocol.
Week 1: Group treated with vehicle
Week 2: Group treated with 10 μg of Compound 16/monkey
Week 3: Group treated with 100 μg of Compound 16/monkey
The sleep times at three hours after administration were determined by playing back the recorded videotape and measuring the times (second) during which the animals relaxed with their both eyes closed, which are shown in Table 2.

SMILES: O=C(O)C#CCCSCC1C(Cl)CC(O)C1C#CC(O)C1CCCCC1 (stereo not drawn) [Compound 16, 9-Deoxy-9β-chloro-16,17,18,19,20-pentanor-15-cyclohexyl-2,2,3,3,13,14-hexadehydro-6-thia-PGF1α]
- Sleep time (10 μg/0.1 ml per monkey): 293 s
- Number of slept animals (10 μg/0.1 ml per monkey): 3/4
- Sleep time (100 μg/0.1 ml per monkey): 1734 s
- Number of slept animals (100 μg/0.1 ml per monkey): 4/4
